Measurements: US10905682B2, “Use of mitochondrial iron chelators for treatment of chronic obstructive pulmonary disease” (Cornell University, priority 2015, dated 2021)

Legend:
Format in all cases: in vivo, mouse
mice exposed to CS [1] = test: CS-induced impairment of mucociliary clearance (MCC), CS-induced bronchitis model
Description: (§1) In vivo CS exposures, chemical treatments and diet modifications. Age- and sex-matched mice, starting at 6-12 weeks of age, were selected at random and exposed to total body CS in a stainless steel chamber using a whole-body smoke exposure device (Model TE-10 Teague Enterprises) for 2 hours per day, 5 days per week for 4 weeks or 4-6 months. Age-matched male and female mice were used for all CS exposures. Mice were exposed to CS (mainstream and side stream smoke) from 100 3R4F cigarettes (University of Kentucky), which correlated to an average total particulate matter (TPM) of 150 mg/m^3. For animals subjected to cigarette smoke exposure, early death was used as an exclusion criterion. At the end of the exposure regimen, mice were euthanized by CO2 narcosis, the tracheas cannulated and the lungs inflated with PBS at 25 cm of H2O pressure. The left lung was tied off with a suture, dissected and flash frozen and the right lung fixed in 4% formalin at 4° C. overnight. A proximal portion of the left lung (4 month exposures only) was fixed for transmission electron microscopy (TEM) analysis.
(§2) Mice exposed to CS for 4 weeks had modifications to their dietary iron as follows: Diet 1 (Control Diet) from Harlan Laboratories (TD.94045 AIN-93G), which contained 300-ppm iron. Diet 2 (iron deficient diet) from Harlan Laboratories (TD.10210), which contained 2-6 ppm iron. […] Animals were weighed weekly and the quantity of chow consumed was recorded compared to mice on a normal iron diet. […] Animals were checked daily and the quantity of water consumed compared to control mice. […]
Assessment of Mucociliary Clearance. Mucociliary clearance was quantified using a non-invasive, oropharyngeal aspiration procedure (Lam et al., The Journal of clinical investigation 123(12), 5212-5230 (2013)). […] Whole mouse 3D μ- single-photon emission computed tomography (SPECT) images from 10 minute acquisitions at 0, 1, and 3 hour time points were obtained, reconstructed, blindly analyzed and expressed as the percent removed by mucociliary clearance. […]

mice exposed to CS [2] = test: Weight gain of CS-exposed mice treated with DFP; conditions: WT mice, CS 6 or 8 weeks, DFP after 4 weeks of CS, versus CS without DFP; FIG. 6d
Description: as §1, with “A proximal portion of the left lung (4 month exposures only) was fixed for transmission electron microscopy (TEM) analysis.” left out
as §2, with “300-ppm” for “300-ppm iron. Diet 2 (iron deficient diet) from Harlan Laboratories (TD.10210), which contained 2-6 ppm”

mice exposed to CS [3] = test: BAL leukocyte counts, BALF protein and IL-33/IL-6 ELISA in CS-induced pulmonary inflammation and injury; conditions: WT mice, 4 weeks CS then DFP during additional 2 or 4 weeks of CS, versus CS without DFP
Description: as §1
Mice exposed to CS for 4 weeks had modifications to their dietary iron as follows: Diet 1 (Control Diet) from Harlan Laboratories (TD.94045 AIN-93G), which contained 300-ppm iron. Diet 2 (iron deficient diet) from Harlan Laboratories (TD.10210), which contained 2-6 ppm iron. Diet 3 (iron replete Diet) from Harlan Laboratories (TD.10213), which contained 2% carbonyl iron. Iron diets were exchanged for normal diets upon weaning at 3 weeks of age and used throughout the smoke exposures. Animals were weighed weekly and the quantity of chow consumed was recorded compared to mice on a normal iron diet. Deferiprone or FERRIPROX® solution (1mg/m1) (ApoPharma Inc.) was administered prophylactically in the animals' drinking water for the duration of smoke exposure. Deferiprone was also administered therapeutically in the animals' drinking water initiating therapy after 4 weeks of smoke exposure and continuing therapy for an additional 2-4 weeks. Animals were checked daily and the quantity of water consumed compared to control mice. Water solutions were changed twice weekly.
BALF isolation, cell counts and ELISA. Mice were euthanized by CO2 narcosis, the tracheas cannulated and the lungs lavaged with 0.5 ml increments of ice-cold PBS eight times (4 ml total). BALF was centrifuged at 500×g for 5 minutes. […] The cell pellet was resuspended in 500 μl PBS and leukocytes were counted using a hemocytometer. […] The percentage of macrophages, lymphocytes and polymorphonuclear leukocytes (PMNs) were counted in a total of 300 cells, and absolute numbers of each leukocyte subset were calculated. […]

[4] = test system: lung mitochondrial non-heme iron; test: Lung mitochondrial non-heme iron in CS-exposed mice; conditions: WT mice, CS 6 or 8 weeks, DFP after 4 weeks of CS, versus CS without DFP; FIG. 6e
Description: In vivo CS exposures, chemical treatments and diet modifications. Age- and sex-matched mice, starting at 6-12 weeks of age, were selected at random and exposed to total body CS in a stainless steel chamber using a whole-body smoke exposure device (Model TE-10 Teague Enterprises) for 2 hours per day, 5 days per week for 4 weeks or 4-6 months. Age-matched male and female mice were used for all CS exposures. Mice were exposed to CS (mainstream and side stream smoke) from 100 3R4F cigarettes (University of Kentucky), which correlated to an average total particulate matter (TPM) of 150 mg/m^3. For animals subjected to cigarette smoke exposure, early death was used as an exclusion criterion. […]
as §2, with “300-ppm” for “300-ppm iron. Diet 2 (iron deficient diet) from Harlan Laboratories (TD.10210), which contained 2-6 ppm”
Measurement of mitochondrial membrane potential and Cytochrome C oxidase activity. Mitochondrial-enriched fractions were isolated from the lungs of mice and JC1 uptake measured using the MITOISO1 mitochondrial isolation kit (Sigma Aldrich). […]

SMILES: Cc1c(O)c(=O)ccn1C [DFP, Deferiprone]
- CS-induced MCC impairment, DFP combined with IRP2 deficiency (mice exposed to CS [1]; DFP-treated Irp2-/- mice versus DFP or Irp2-/- alone, CS 1 month, FIG. 6c): better protection from CS-induced MCC impairment than DFP or Irp2−/− alone
- CS-induced MCC impairment (mice exposed to CS [1]; prophylactic: DFP in drinking water for the duration of CS-exposure (1 month), WT mice, FIG. 6c): protected mice from CS-induced MCC impairment
- experimental COPD (overall) (mice exposed to CS [1]; summary statement, CS-exposed mice): alleviated experimental COPD
- weight gain (mice exposed to CS [2]): improved weight gain
- BAL total leukocyte counts (pulmonary inflammation) (mice exposed to CS [3]; FIG. 6f): significant reductions
- total BALF protein (acute lung injury) (mice exposed to CS [3]; FIG. 6g): significant reductions
- BALF IL-6 protein concentration (pulmonary inflammation) (mice exposed to CS [3]; FIG. 16e): significant reductions
- BALF IL-33 protein concentration (pulmonary inflammation) (mice exposed to CS [3]; FIG. 16d): significant reductions
- lung mitochondrial iron loading [4]: lower lung mitochondrial iron loading
